Several values for one entry are separate records, joined by “and”; a condition that tells them apart may be missing. Equal entries are not always repeated.
Tests used:
E. faecalis = assay: High throughput assay screening of prebiotics; format: cell-based, Enterococcus faecalis; design: key: ++: if growth and fermentation was equal to or greater than the positive control; +: if growth and fermentation was less than the positive control; +: if weak or no growth or fermentation; +^2: Bacteria demonstrated growth but no fermentation on the prebiotic; details: 2% w/v prebiotic in API 50 CHL media; for growth and fermentation vs positive control, Ef-1: E. faecalis ATCC BAA-2128, Culture Collection; for growth and fermentation vs positive control, Ef-2: E. faecalis KC16-7171-3, Bladder; for growth and fermentation vs positive control, Ef-3: E. faecalis KC17-3969-2B, Bladder; for growth and fermentation vs positive control, Ef-4: E. faecalis KC17-4331-3, Bladder
Method: (§1) Most of the prebiotic compounds were initially tested in a high throughput assay screening process, described further in the Test Methods section herein, but three prebiotics (as noted in Table 3) were tested using a plate assay screening process as described in the Test Methods section herein. The prebiotics were tested against the commensal bacterial species of Lactobacillus crispatus, Lactobacillus gasseri, and Lactobacillus jensenii and against the pathogenic bacterial species of Streptococcus anginosus and Enterococcus faecalis as shown in Table 2. The bacterial species were taken from different sources, listed as culture collection, bladder, and vagina.
(§2) The results of the assay plate screening of the prebiotic compounds of Table 1 against the bacterial species of Table 2 is documented in Table 3 with the results being described by the following legend: • ++ if growth and fermentation was equal to or greater than the positive control • + if growth and fermentation was less than the positive control • […] if weak or no growth or fermentation • NT if not tested Some codes were not tested based on the use or non-use by the bacteria, as a way to efficiently move through the assay plate screening to the competition assay, described below.
(§3) • 1. Create a 2% w/v stock of prebiotic or positive control (glucose/dextrose) to be tested in API 50 CHL media (Biomerieux, Marcy-I'Étoile, France). API 50 CHL media contains minimal amounts of carbon for growth, and a bromocresol purple as a pH indicator of fermentation. Filter sterilize media with a […]. Store at 4-6° C. until use. • 2. Add 180 μL of media containing the prebiotic to a sterile, flat bottom 96-well microtiter plate (Corning, Corning, NY). • 3. From a freezer stock subculture the bacteria twice into De Man, Rogosa and Sharpe (MRS) broth (BD Difco, Becton Dickinson, Franklin Lakes, NJ), 37° C., stationary, anaerobic, overnight. • 4. From the last subculture, plate onto an MRS agar plate (Teknova, Hollister, CA) and grow 37° C., stationary, anaerobic, overnight. • 5. Create a bacterial suspension by using a sterile tipped swab to transfer colonies of bacteria into a PBS suspension blank to a 0.5 MacFarland (S. anginosus or E. faecalis) or a 1 MacFarland (Lactobacillus species) from the MRS agar plate. • 6. Enumerate the starting culture. • 7. Inoculate the media alone and media containing the prebiotic or positive control with 20 μL of the bacterial suspension. • 8. Place the plate into a spectrophotometer (Molecular Devices, San Jose, CA) and read the plate every 20 minutes for 24-48 hours. Read wavelengths (OD 430, OD 590, and OD 660). A color change to yellow caused by a drop in pH will be read by an increase in the OD430 value and a decrease in the OD590 value and is indicative of bacterial fermentation. An increase in OD660 values is indicative of an increase in turbidity and bacterial growth.

L. crispatus = assay: High throughput assay screening of prebiotics; format: cell-based, Lactobacillus crispatus; design: key: ++: if growth and fermentation was equal to or greater than the positive control; +: if growth and fermentation was less than the positive control; +: if weak or no growth or fermentation; +^2: Bacteria demonstrated growth but no fermentation on the prebiotic; details: 2% w/v prebiotic in API 50 CHL media; for growth and fermentation vs positive control, Lc-3: L. crispatus KC18-1173-1, Bladder; for growth and fermentation vs positive control, Lc-4: L. crispatus KC18-1174-1, Vagina
Method: as §1, §2, §3

S. anginosus = assay: High throughput assay screening of prebiotics; format: cell-based, Streptococcus anginosus; design: key: ++: if growth and fermentation was equal to or greater than the positive control; +: if growth and fermentation was less than the positive control; +: if weak or no growth or fermentation; +^2: Bacteria demonstrated growth but no fermentation on the prebiotic; details: 2% w/v prebiotic in API 50 CHL media; for growth and fermentation vs positive control, Sa-2: S. anginosus KC18-1131-3B, Bladder
Method: as §1, §2, §3

L. gasseri = assay: High throughput assay screening of prebiotics; format: cell-based, Lactobacillus gasseri; design: key: ++: if growth and fermentation was equal to or greater than the positive control; +: if growth and fermentation was less than the positive control; +: if weak or no growth or fermentation; +^2: Bacteria demonstrated growth but no fermentation on the prebiotic; details: 2% w/v prebiotic in API 50 CHL media; for growth and fermentation vs positive control, Lg-1: L. gasseri KC16-7135-1, Bladder; for growth and fermentation vs positive control, Lg-2: L. gasseri KC16-7171-1, Bladder
Method: as §1, §2, §3

L. jensenii = assay: High throughput assay screening of prebiotics; format: cell-based, Lactobacillus jensenii; design: key: ++: if growth and fermentation was equal to or greater than the positive control; +: if growth and fermentation was less than the positive control; +: if weak or no growth or fermentation; +^2: Bacteria demonstrated growth but no fermentation on the prebiotic; details: 2% w/v prebiotic in API 50 CHL media
Method: as §1, §2, §3

[1] = tested on: commensal and pathogenic bacterial species; assay: Prebiotic screening, summary in words across species; format: cell-based; details: for overall outcome of the screening of Table 3, in words: commensal (L. crispatus, L. gasseri, L. jensenii) and pathogenic (S. anginosus, E. faecalis) species
Method: as §1, §2, §3
• 1. An in house bacterial agar was created based on MRS agar (Kaplan and Hutkins, 2000) where the glucose is substituted for the prebiotic to be tested (either dextran MW ˜6,000, alpha-cyclodextrin, glucomannan, or pectin), bromocresol purple was included as a pH indicator. • 2. Bacteria were enumerated on each agar and color changes were recorded. Method for Competition Assay (Modified from “In Vitro Evaluation of Nutrients that Selectively Confer a Competitive Advantage to Lactobacilli” Vongsa et al, Beneficial Microbes 2016) • 1. Create 2% w/v stock of prebiotic or positive control (glucose/dextrose) as described above. • 2. From a freezer stock subculture the bacteria twice into De Man, Rogosa and Sharpe (MRS) broth (BD Difco, Becton Dickinson, Franklin Lakes, NJ), 37° C., stationary, anaerobic, overnight. • 3. From the last subculture, plate onto an MRS agar plate for L. crispatus KC18-1173-1 or blood agar for S. anginosus KC18-1131-3B, grow 37° C., stationary, anaerobic, overnight. • 4. […]

[2] = tested on: S. anginosus, KC18-1131-3B, Bladder (Sa-2); format: cell-based; details: Table 6, prebiotic 2%, one line per replicate
Method: (§4) Further testing was conducted to put the prebiotic compounds in competition assay testing, as further described in the test methods section herein. In the competition assay testing, each competition involved testing a single prebiotic compound with the commensal bacteria species of L. crispatus, KC18-1173-1, Bladder (“Lc-3”—Table 2) against the pathogenic bacterial species of S. anginosus, KC18-1131-3B, Bladder (“Sa-2”—Table 2).
(§5) • 1. An in house bacterial agar was created based on MRS agar (Kaplan and Hutkins, 2000) where the glucose is substituted for the prebiotic to be tested (either dextran MW ˜6,000, alpha-cyclodextrin, glucomannan, or pectin), bromocresol purple was included as a pH indicator. • 2. Bacteria were enumerated on each agar and color changes were recorded. Method for Competition Assay (Modified from “In Vitro Evaluation of Nutrients that Selectively Confer a Competitive Advantage to Lactobacilli” Vongsa et al, Beneficial Microbes 2016) • 1. Create 2% w/v stock of prebiotic or positive control (glucose/dextrose) as described above. • 2. From a freezer stock subculture the bacteria twice into De Man, Rogosa and Sharpe (MRS) broth (BD Difco, Becton Dickinson, Franklin Lakes, NJ), 37° C., stationary, anaerobic, overnight. • 3. From the last subculture, plate onto an MRS agar plate for L. crispatus KC18-1173-1 or blood agar for S. anginosus KC18-1131-3B, grow 37° C., stationary, anaerobic, overnight. • 4. Create a bacterial suspension by using a sterile tipped swab to transfer colonies of bacteria into a PBS suspension blank to a 2 MacFarland for both species. • 5. Enumerate the starting culture. • 6. Add 9.8 mL of prebiotic media into a 15 mL conical tube. • 7. Add 100 μL of the diluted bacteria to the media, incubate at 37° C., anaerobic, 48 hours. • 8. Harvest 100 μL from the tube containing the prebiotic and plate onto MRS agar and tryptic soy agar (TSA). • 9. Enumerate the bacteria on the MRS agar (both the L. crispatus and the S. anginosus). Small colonies are counted as S. anginosus and large colonies are counted as L. crispatus. • 10. Enumerate the bacteria on the TSA plate. […] Growth of the bacteria in the negative control (CHL media without prebiotic) was subtracted from the growth in the presence of the prebiotic or formulation.

[3] = tested on: L. crispatus, KC18-1173-1, Bladder (Lc-3); assay: Competition assay, L. crispatus recovered; format: cell-based, Lactobacillus crispatus; details: Table 6, prebiotic 2%, one line per replicate
Method: as §4, §5

[4] = tested on: ratio of L. crispatus/S. anginosus; assay: Therapeutic effect protocol (competition assay); format: cell-based, Lactobacillus crispatus; Streptococcus anginosus; details: Table 6; prebiotic 2%; Lc-3 vs Sa-2
From the text: As used herein, the term “therapeutic effect” refers to the ability of the compositions and formulations of the present disclosure to stimulate the growth of L. crispatus relative S. anginosus measured according to the therapeutic effect protocol described below. The therapeutic effect can be expressed as a ratio of L. crispatus to S. anginosus and is desirably greater than about 100, more preferably greater than about 500 and more desirably greater than about 1,000.
as §4, §5
Colonies of L. crispatus and S. anginosus were tested against in the competition method assay test method as described above. The therapeutic effect was calculated by comparing the colony forming units recovered after the competition assay of both L. crispatus and S. anginosus and calculating the ratio of L. crispatus/S. anginosus. A larger number indicates an increase in L. crispatus and/or a decrease in S. anginosus and a smaller number indicates a decrease in L. crispatus and/or an increase in S. anginosus.

[5] = change vs start, background growth in CHL media subtracted, MRS agar

Molecule	growth and fermentation vs positive control, Ef-1 (E. faecalis)	growth and fermentation vs positive control, Ef-2 (E. faecalis)	growth and fermentation vs positive control, Ef-3 (E. faecalis)	growth and fermentation vs positive control, Ef-4 (E. faecalis)	growth and fermentation vs positive control, Lc-3 (L. crispatus)	growth and fermentation vs positive control, Lc-4 (L. crispatus)	growth and fermentation vs positive control, Sa-2 (S. anginosus)	growth and fermentation vs positive control, Lg-1 (L. gasseri)	growth and fermentation vs positive control, Lg-2 (L. gasseri)	overall outcome of the screening of Table 3, in words [1]	other results
Maltotriose	++	++	++	++	++	++	++	++	++	able to provide growth on the commensal bacterial species, but also provided growth on the pathogenic bacterial species	growth and fermentation vs positive control, Lc-1 (L. crispatus; L. crispatus ATCC 33820, Culture Collection): ++; growth and fermentation vs positive control, Lc-2 (L. crispatus; L. crispatus KC16-7134-3C, Bladder): ++; growth and fermentation vs positive control, Sa-1 (S. anginosus; S. anginosus ATCC 33397, Culture Collection): ++; growth and fermentation vs positive control, Lj-2 (L. jensenii; L. jensenii KC17-4347-1, Bladder): ++
OC[C@H]1O[C@H](O[C@H]2O[C@H](CO)[C@@H](O)[C@H](O)[C@H]2O)[C@H](O)[C@@H](O)[C@@H]1O [D-Trehalose]		++	++	++	++	+	++	++	++		growth and fermentation vs positive control, Lg-3 (L. gasseri; L. gasseri KC18-1131-2, Bladder): ++; growth and fermentation vs positive control, Lj-1 (L. jensenii; L. jensenii KC17-4297-18, Bladder): +
OC[C@@H](O)[C@@H](O[C@@H]1O[C@H](CO)[C@H](O)[C@H](O)[C@H]1O)[C@H](O)[C@@H](O)CO [Lactitol]	+									not able to provide growth for most, if not all, commensal and pathogenic bacterial species	Sa-2 MRS Δ [2, 5]: 0.75 Log CFU/mL and 0.69 Log CFU/mL; Sa-2 TSA Δ ([2]; change vs start, background growth in CHL media subtracted, TSA): 0.58 Log CFU/mL and 0.52 Log CFU/mL; Sa-2 MRS end ([2]; competition Sa-2 vs Lc-3, 48 hours, anaerobic, enumerated on MRS agar): 7.45 Log CFU/mL and 7.54 Log CFU/mL; Sa-2 TSA end ([2]; competition Sa-2 vs Lc-3, 48 hours, enumerated on TSA): 7.43 Log CFU/mL and 7.65 Log CFU/mL; Lc-3 MRS Δ [3, 5]: 0.77 Log CFU/mL and 0.66 Log CFU/mL; Lc-3 MRS end ([3]; competition Sa-2 vs Lc-3, 48 hours, enumerated on MRS agar): 5.90 Log CFU/mL and 6.74 Log CFU/mL; Therapeutic Effect (ratio of L. crispatus/S. anginosus) [4]: 2.95E−02 (2×) and 1.23E−01 (2×); growth of commensal bacterial species, in words ([1]; commensal species from culture collection, the bladder, or the vagina): did not show any positive growth
